Source: publication PMC8568530, “Inhibition of Vascular Smooth Muscle and Cancer Cell Proliferation by New VEGFR Inhibitors and Their Immunomodulator Effect: Design, Synthesis, and Biological Evaluation” (Oxidative Medicine and Cellular Longevity, 2021)

Tests used:
BAX = BAX level in HepG-2 cells; type: cell-based, human; settings: for BAX Conc.: HepG-2 cells treated with compound; for BAX Fold: HepG-2 cells, versus control
Text: (§1) (2) Effects on Bcl-2 Family Proteins. The Bcl-2 family proteins are vital regulators of apoptosis cell death. Members of this family include the proapoptotic factor Bax which promotes cell death and the prosurvival (antiapoptotic) Bcl-2 which suppresses cell death. […] Results are expressed in Table 3.
(§2) (2) Effects on Bcl-2 Family Proteins. […] (Supplementary data).

MCF-7 = assay: MTT antiproliferative assay, MCF-7; type: cell-based; settings: Homo sapiens, MCF7, breast cancer MCF-7
Procedure: (§3) The in vitro antiproliferative activities of the newly synthesized compounds were evaluated against a panel of three human tumor cell lines, namely, breast cancer (MCF-7), hepatocellular carcinoma (HepG-2), and colorectal carcinoma (HCT-116) using the standard MTT method. The tested cell lines were selected depending on their VEGF overexpression. Sorafenib, the lead drug, was coassayed as a positive control.
(§4) The antiproliferative activity of the synthesized compounds was evaluated using MTT protocol as described (Supplementary data (available here)).

HCT-116 = assay: MTT antiproliferative assay, HCT-116; type: cell-based; settings: Homo sapiens, colorectal carcinoma HCT-116
Procedure: as §3, §4

VEGFR-2 = VEGFR-2 (Homo sapiens, UniProt P35968); assay: In vitro VEGFR-2 enzyme inhibition assay; type: biochemical; settings: read-out: IC50 against VEGFR-2
Bcl-2 = Bcl-2 level in HepG-2 cells; type: cell-based, human; settings: for Bcl-2 Conc.: HepG-2 cells treated with compound; for Bcl-2 Fold: HepG-2 cells, versus control
Text: as §1, §2

HepG-2 = assay: MTT antiproliferative assay, HepG-2; type: cell-based; settings: Homo sapiens, HepG2, hepatocellular carcinoma HepG-2
Procedure: as §3, §4

caspase-3 = assay: Active caspase-3 level in HepG-2 cells; type: cell-based, human; settings: for Caspase 3 Conc.: HepG-2 cells treated with compound; for Caspase 3 Fold: HepG-2 cells, versus control
Text: (1) Effects on the Levels of Active Caspase-3. A significant mechanism by which anticancer agents can affect cancer cells is apoptosis. Apoptosis is a process of automated cell death. The apoptosis mechanism is typically mediated by a group of proteases called caspases. Caspase-3 is activated in every mammalian cell type provoking the cell to die, considered one of the apoptosis marks.
(1) Effects on the Levels of Active Caspase-3. […] (Supplementary data).

[1] = tested on: WI-38 cell line (normal human lung fibroblasts); assay: MTT cytotoxicity against normal cells WI-38; type: cell-based; settings: normal human lung fibroblasts WI-38
Procedure: The cytotoxicity values of the synthesized compounds against the WI-38 cell line (normal human lung fibroblasts) were also evaluated in vitro.
as §4

TNF-α = TNF-α in HepG-2 supernatant (ELISA); type: cell-based, human
Text: (1) Estimation of Human Tumor Necrosis Factor Alpha (TNF-α) in HepG-2 Supernatant. […] Celecoxib, a potent inhibitor of TNF-α-induced cytokine expressions, was used as a positive control. […] Among the tested compounds, compound 7a caused a remarkably significant reduction in TNF-α levels (87%) in comparison to celecoxib (86%).
The levels of TNF-α in cell culture supernatants were estimated by the ELISA technique according to the reported procedure.

[2] = tested on: MCF-7, HepG-2, and HCT-116; assay: MTT antiproliferative assay, panel of three tumor cell lines (range over lines); type: cell-based; settings: Homo sapiens, range over the three cancer cell lines, read-out: cytotoxic IC50, range over MCF-7, HepG-2 and HCT-116
Procedure: as §3, §4

Sequence of VEGFR-2 (P35968 20-1356): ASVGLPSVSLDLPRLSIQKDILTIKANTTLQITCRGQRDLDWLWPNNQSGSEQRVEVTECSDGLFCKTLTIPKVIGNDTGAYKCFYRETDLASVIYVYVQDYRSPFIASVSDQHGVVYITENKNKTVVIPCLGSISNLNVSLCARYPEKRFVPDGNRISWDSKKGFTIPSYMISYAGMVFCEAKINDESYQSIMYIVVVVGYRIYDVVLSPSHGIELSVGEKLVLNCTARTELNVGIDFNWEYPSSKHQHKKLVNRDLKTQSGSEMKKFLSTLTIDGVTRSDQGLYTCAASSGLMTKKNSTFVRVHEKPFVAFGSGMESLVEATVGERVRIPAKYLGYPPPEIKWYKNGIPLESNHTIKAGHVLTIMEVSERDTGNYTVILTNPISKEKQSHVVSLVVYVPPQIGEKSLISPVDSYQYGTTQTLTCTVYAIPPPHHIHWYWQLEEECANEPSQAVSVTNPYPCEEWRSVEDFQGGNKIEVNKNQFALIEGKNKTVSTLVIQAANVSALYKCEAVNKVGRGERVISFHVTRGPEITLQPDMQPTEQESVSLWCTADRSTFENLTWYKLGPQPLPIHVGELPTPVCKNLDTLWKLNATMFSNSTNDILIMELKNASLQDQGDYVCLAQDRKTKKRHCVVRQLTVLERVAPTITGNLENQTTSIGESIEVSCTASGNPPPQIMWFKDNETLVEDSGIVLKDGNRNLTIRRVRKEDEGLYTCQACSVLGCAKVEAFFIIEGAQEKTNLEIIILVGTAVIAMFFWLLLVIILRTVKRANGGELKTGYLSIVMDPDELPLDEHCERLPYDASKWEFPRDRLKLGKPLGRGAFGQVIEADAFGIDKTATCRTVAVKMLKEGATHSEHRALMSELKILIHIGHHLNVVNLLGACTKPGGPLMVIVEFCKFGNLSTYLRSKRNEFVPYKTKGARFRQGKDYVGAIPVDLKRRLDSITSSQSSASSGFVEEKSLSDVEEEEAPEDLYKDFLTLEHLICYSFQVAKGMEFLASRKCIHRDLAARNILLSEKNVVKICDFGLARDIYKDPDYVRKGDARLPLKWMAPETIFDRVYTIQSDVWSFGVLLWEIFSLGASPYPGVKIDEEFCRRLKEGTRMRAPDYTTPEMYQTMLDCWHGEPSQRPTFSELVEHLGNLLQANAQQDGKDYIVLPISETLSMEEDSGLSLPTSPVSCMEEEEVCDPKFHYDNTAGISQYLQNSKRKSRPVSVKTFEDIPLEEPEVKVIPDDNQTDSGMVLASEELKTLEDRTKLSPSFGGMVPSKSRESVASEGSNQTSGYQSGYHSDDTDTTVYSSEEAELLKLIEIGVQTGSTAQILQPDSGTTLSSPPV

SMILES	BAX Conc. (BAX) [pg/mL]	BAX Fold (BAX) [fold]	IC50 (MCF-7) [µM]	IC50 (HCT-116) [µM]	IC50 (VEGFR-2) [µM]	Bcl-2 Conc. (Bcl-2) [pg/mL]	Bcl-2 Fold (Bcl-2) [fold]	IC50 (HepG-2) [µM]	Caspase 3 Conc. (caspase-3) [pg/mL]	Caspase 3 Fold (caspase-3) [fold]	IC50 [1] [µM]	TNF-α % inhibition (TNF-α) [%]	IC50 [2] [µM]	melting point [°C]
O=C(Nc1ccc(C(=O)NC2CCCCC2)cc1)c1cccnc1 [Compound 5, N-(4-(Cyclohexylcarbamoyl)phenyl)nicotinamide]	232.7	10.78	4.66	1.6	2.46	1.35	0.25	3.29	345.5	6.72	61.4	85	–	–
COc1ccc(NC(=O)c2ccc(NC(=O)c3cccnc3)cc2)cc1 [Compound 7b, N-(4-((4-Methoxyphenyl)carbamoyl)phenyl)nicotinamide]	257.5	11.93	1.25	2.54	3.45	1.92	0.36	2.12	397.61	–	82.2	72	–	–
Cc1ccccc1NC(=O)c1ccc(NC(=O)c2cccnc2)cc1 [Compound 7f, N-(4-(o-Tolylcarbamoyl)phenyl)nicotinamide]	–	–	20.5	18.3	–	–	–	31.4	–	–	157	–	14.1 to 31.4	194 to 197
Cc1cccc(NC(=O)c2ccc(NC(=O)c3cccnc3)cc2)c1 [Compound 7h, N-(4-(m-Tolylcarbamoyl)phenyl)nicotinamide]	–	–	19.2	22.7	–	–	–	14.9	–	–	95.1	–	14.1 to 31.4	217 to 219
Cc1ccc(NC(=O)c2ccc(NC(=O)c3cccnc3)cc2)cc1 [Compound 7j, N-(4-(p-Tolylcarbamoyl)phenyl)nicotinamide]	–	–	16.8	15.1	–	–	–	14.1	–	–	84.9	–	14.1 to 31.4	219 to 222
Cc1ccc(NC(=O)c2ccc(NC(=O)c3cccnc3)cc2)c(C)c1 [Compound 7k, N-(4-((2,4-Dimethylphenyl)carbamoyl)phenyl)nicotinamide]	–	–	17.1	18.7	–	–	–	20.1	–	–	75.3	–	14.1 to 31.4	254 to 256
O=C(Nc1ccc(F)cc1)c1ccc(NC(=O)c2cccnc2)cc1 [Compound 7l, N-(4-((4-Fluorophenyl)carbamoyl)phenyl)nicotinamide]	226.9	10.51	3.5	2.75	3.84	2.11	0.39	2.64	340.42	6.62	68.2	74	–	–
O=C(NNC(=O)C(F)(F)F)c1ccc(NC(=O)c2cccnc2)cc1 [Compound 10, N-(4-(2-(2,2,2-Trifluoroacetyl)hydrazine-1-carbonyl)phenyl)nicotinamide]	231.6	10.73	3.55	5.49	7.68	2.72	0.51	3.16	334.57	6.51	78.4	40	–	–
O=C(N/N=C/c1ccc([N+](=O)[O-])cc1)c1ccc(NC(=O)c2cccnc2)cc1 [Compound 11c, (E)-N-(4-(2-(4-Nitrobenzylidene)hydrazine-1-carbonyl)phenyl)-nicotinamide]	133.2	6.17	6.29	5.72	8.09	2.81	0.52	7.31	271.41	5.28	52.3	31	3.47 to 7.31	–
COc1ccc(/C=N/NC(=O)c2ccc(NC(=O)c3cccnc3)cc2)cc1 [Compound 11d, (E)-N-(4-(2-(4-Methoxybenzylidene)hydrazine-1-carbonyl)phenyl)-nicotinamide]	237.9	11.02	4.15	1.94	2.74	1.72	0.32	2.23	391.23	–	50.3	81	–	–
O=C(CSc1nnc(-c2cccnc2)o1)Nc1ccc(Cl)cc1 [Compound 18a, N-(4-Chlorophenyl)-2-((5-(pyridin-3-yl)-1,3,4-oxadiazol-2-yl)thio)acetamide]	113.5	5.26	5.81	5.13	5.23	2.63	0.49	8.29	267.64	5.20	123	45	–	–
O=C(CSc1nnc(-c2cccnc2)o1)Nc1ccccc1 [Compound 18b, N-Phenyl-2-((5-(pyridin-3-yl)-1,3,4-oxadiazol-2-yl)thio)acetamide]	154.4	7.15	2.67	4.19	6.57	2.51	0.47	6.11	310.75	6.04	64.3	54	–	–
O=C(CSc1nnc(-c2cccnc2)o1)NCc1ccccc1 [Compound 18c, N-Benzyl-2-((5-(pyridin-3-yl)-1,3,4-oxadiazol-2-yl)thio)acetamide]	–	–	19.4	21.7	–	–	–	8.59	–	–	92.1	–	–	167 to 169
